Blank lines part the entries; values can stand above or below the compound they belong to.
Tests used:
[1] = test system: HEK293 cells; experiment: [3H]D-serine transport in HEK293 cells; format: cell-based; conditions: endogenous ASCT2
Procedure: (§1) The cell lines HEK293 and Flp-In TREx 293 were cultured at 37° C. in a 5% CO2 environment, using Dulbecco's Modified Eagle Medium (DMEM) containing 10% fetal bovine serum (FBS), 100 units/ml Penicillin G and 100 μg/ml streptomycin (P/S). The cells were seeded in a Poly-D-lysine coated 24-well plate at 6×10^4 cells/well. After culturing for 3 days in DMEM Medium containing 10% FBS and P/S, the cell were used for transport activity measurement. Before transport activity measurement, the cells were washed with transport activity measurement buffer (PBS+1 g/L D-glucose) prewarmed to 37° C. and incubated for 10 minutes at 37° C. in 500 μL of buffer. The transport activity measurement was initiated by addition of D-[^3H]serine-containing transport activity buffer at the indicated concentration. The reaction product produced after addition was incubated at 37° C. for the indicated time. The reaction was suspended by removing the D-[^3H]serine-containing transport activity buffer, and the product was washed 3 times with thoroughly cooled transport activity buffer. The cells were dissolved with 500 μL of 0.1 N NaOH and incubated for at least one hour. Protein concentration of the cell lysate was measured by BCA protein assay. The lysate was mixed with 1 mL of Emulsifier Safe (PerkinElmer, MA, USA) and the radioactivity of the lysate was measured with a β-scintillation counter (LSC-8000, Hitachi). In transport activity measurement for Na^+, HBSS (+Na^+: 125 mM NaCl, −Na^+: choline chloride, 4.8 mM KCl, 1.2 mM MgSO4, 1.2 mM KH2PO4, 1.3 mM CaCl2), 5.6 mM D-glucose and 25 mM HEPES was used instead of PBS. For the inhibition experiment, a non-radioactive labeled compound was included as the uptake substrate as shown in the drawing.

[2] = target: T1, ASCT2 (Homo sapiens, UniProt Q15758); experiment: [3H]D-serine transport in HEK293 cells transfected with ASCT2; format: cell-based
T1 construct: expressed in transfected cells; host or cells: HEK293 cells
T1 sequence (Q15758 1-541): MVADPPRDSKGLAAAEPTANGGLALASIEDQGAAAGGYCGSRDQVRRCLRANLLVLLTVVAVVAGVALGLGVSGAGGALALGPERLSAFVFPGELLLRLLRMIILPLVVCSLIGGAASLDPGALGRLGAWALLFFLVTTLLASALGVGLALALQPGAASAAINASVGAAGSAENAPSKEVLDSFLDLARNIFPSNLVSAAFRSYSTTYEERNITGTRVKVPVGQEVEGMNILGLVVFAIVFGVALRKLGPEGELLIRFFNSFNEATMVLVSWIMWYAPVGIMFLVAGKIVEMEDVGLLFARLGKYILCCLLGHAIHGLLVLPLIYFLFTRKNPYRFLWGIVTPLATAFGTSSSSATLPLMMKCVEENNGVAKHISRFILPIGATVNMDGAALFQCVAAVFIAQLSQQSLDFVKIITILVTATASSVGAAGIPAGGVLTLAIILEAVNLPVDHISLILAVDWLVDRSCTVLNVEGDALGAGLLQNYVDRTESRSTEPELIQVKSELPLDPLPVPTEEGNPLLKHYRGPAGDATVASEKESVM
Procedure: The cell lines HEK293 and Flp-In TREx 293 were cultured at 37° C. in a 5% CO2 environment, using Dulbecco's Modified Eagle Medium (DMEM) containing 10% fetal bovine serum (FBS), 100 units/ml Penicillin G and 100 μg/ml streptomycin (P/S). The cells were seeded in a Poly-D-lysine coated 24-well plate at 6×10^4 cells/well. After culturing for 3 days in DMEM Medium containing 10% FBS and P/S, the cell were used for transport activity measurement. Before transport activity measurement, the cells were washed with transport activity measurement buffer (PBS+1 g/L D-glucose) prewarmed to 37° C. and incubated for 10 minutes at 37° C. in 500 μL of buffer. The transport activity measurement was initiated by addition of D-[^3H]serine-containing transport activity buffer at the indicated concentration. The reaction product produced after addition was incubated at 37° C. for the indicated time. The reaction was suspended by removing the D-[^3H]serine-containing transport activity buffer, and the product was washed 3 times with thoroughly cooled transport activity buffer. […] Protein concentration of the cell lysate was measured by BCA protein assay. The lysate was mixed with 1 mL of Emulsifier Safe (PerkinElmer, MA, USA) and the radioactivity of the lysate was measured with a β-scintillation counter (LSC-8000, Hitachi). […]

[3] = test system: Flp-In TREx 293 cell line; experiment: D-[3H]serine uptake in Flp-In TREx 293 cell line in the presence of inhibitors; format: cell-based; conditions: 10 minutes
Procedure: as §1

[4] = test system: mouse brush border membrane vesicles (BBMV); experiment: D-[3H]serine transport activity measurement with mouse BBMVs; format: biochemical
Procedure: Total mouse kidneys were extracted by perfusion using PBS buffer at pH 7.4, and then immediately frozen with liquid nitrogen and stored at −80° C. until use. The frozen kidneys were resuspended in buffer containing 20 mM Tris-HCl at pH 7.6, 250 mM mannitol, 1 mM EDTA and Complete EDTA-free protease inhibitor cocktail (Roche, Switzerland), and crushed using a PHYSCOTRON (Microtec Co., Ltd.). The sample was then homogenized using a Potter-Elvehjem homogenizer. After centrifugation at 1,000×g for 5 minutes at 4° C., the supernatant was centrifuged at 3,000×g for 5 minutes at 4° C. After centrifugation, the supernatant was mixed with 1 M MgCl2 at a final concentration of 11 mM MgCl2, and incubated on ice for 20 minutes. This was followed by centrifugation at 3,000×g for 15 minutes at 4° C., and then ultracentrifugation of the supernatant containing crude membrane vesicles at 438,000×g for 30 minutes at 4° C. The pellet remaining after ultracentrifugation (BBMVs) was suspended in buffer containing 20 mM Tris-HCl at pH 7.6 and 250 mM mannitol. The BBMVs were quantified using a BCA protein quantitation kit (Thermo Fisher Scientific). The BBMVs were cryopreserved at −80° C. until use. Before transport activity measurement, the cryopreserved BBMVs were thawed to allow introduction of potassium into the BBMVs, after which they were ultracentrifuged at 438,000×g for 30 minutes at 4° C., and the pellet was then suspended in buffer containing 10 mM Tris-HCl at pH 7.6, 100 mM KCl and 100 mM mannitol to a 5 mg/mL protein concentration, and the BBMV suspension was incubated on ice overnight. Before measurement of the transport activity, valinomycin was added to the BBMV sample to a final concentration of 5 μM and the mixture was incubated at room temperature for 30 minutes. […] The used filter was melted with Clear-sol I (Nacalai Tesque, Inc.) and the radioactivity on the filter was measured using a β-scintillation counter (LSC-8000, Hitachi).

[5] = target: T2, hSMCT1 (Homo sapiens, UniProt Q8N695); experiment: D-[3H]serine uptake in FlpIn293TR-hSLC5A8-3×FLAG stable cell line; format: cell-based; conditions: 20 μM D-[3H]serine, 10 minutes
T2 construct: A final pcDNA5-hSLC5A8_NM145913-3×FLAG positive clone was obtained and named “pcDNA5-hSLC5A8-3×FLAG”; expressed in transfected cells
T2 sequence (Q8N695 1-610): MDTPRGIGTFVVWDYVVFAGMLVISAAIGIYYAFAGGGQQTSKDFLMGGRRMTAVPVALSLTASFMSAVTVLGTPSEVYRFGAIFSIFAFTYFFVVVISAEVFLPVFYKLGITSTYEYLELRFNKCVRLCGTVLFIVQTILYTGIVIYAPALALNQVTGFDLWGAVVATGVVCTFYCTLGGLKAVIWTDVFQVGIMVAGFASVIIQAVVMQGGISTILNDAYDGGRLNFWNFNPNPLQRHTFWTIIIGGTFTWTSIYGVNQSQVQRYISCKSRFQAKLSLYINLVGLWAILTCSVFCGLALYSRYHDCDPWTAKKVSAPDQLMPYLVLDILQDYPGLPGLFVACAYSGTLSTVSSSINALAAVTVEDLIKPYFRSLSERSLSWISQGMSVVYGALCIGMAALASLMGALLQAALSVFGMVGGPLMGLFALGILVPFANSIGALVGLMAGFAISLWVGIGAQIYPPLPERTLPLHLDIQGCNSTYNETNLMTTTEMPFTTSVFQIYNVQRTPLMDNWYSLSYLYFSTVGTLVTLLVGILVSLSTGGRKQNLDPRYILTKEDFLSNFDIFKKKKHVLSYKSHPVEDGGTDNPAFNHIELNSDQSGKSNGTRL
Procedure: (§2) The stable cell line FlpIn293 TR was seeded in a poly-D-lysine-coated 24-well plate at 5×10^4 cells/well (Mock) or 6×10^4 cells/well (hSLC5A8 and hSLC5A12 cells), and after 24 hours, 1 mg/L doxycycline hyclate was added to induce recombinant gene expression. The cells were continuously cultured for 2 days and transport activity measurement was conducted at 80% to 90% confluence. In an ASCT2 knockdown experiment, the seeded cells were transfected after 12 hours with ASCT2 siRNA at 10 pmol/well, using Lipofectamine 3000. Before transport activity measurement, the cells were washed 3 times with transport activity buffer (PBS+1 g/L D-glucose) warmed to 37° C. and incubated for 10 minutes at 37° C. in 500 μL of buffer. The transport activity measurement was initiated by addition of D-[^3H]serine-containing transport activity buffer at the indicated concentration. The reaction product produced after addition was incubated at 37° C. for the indicated time. The reaction was suspended by removing the D-[^3H] serine-containing transport activity buffer, and the product was washed 3 times with thoroughly cooled transport activity buffer. […] Protein concentration of the cell lysate was measured by BCA protein assay. The lysate was mixed with 1 mL of Emulsifier Safe (PerkinElmer, MA, USA) and the radioactivity of the lysate was measured with a β-scintillation counter (LSC-8000, Hitachi). […]

[6] = target: T3, hSMCT2 (Homo sapiens, UniProt Q1EHB4); experiment: D-[3H]serine uptake in FlpIn293TR-hSLC5A12-3×FLAG stable cell line; format: cell-based; conditions: 20 μM D-[3H]serine, 10 minutes
T3 construct: expressed in transfected cells
T3 sequence (Q1EHB4 1-618): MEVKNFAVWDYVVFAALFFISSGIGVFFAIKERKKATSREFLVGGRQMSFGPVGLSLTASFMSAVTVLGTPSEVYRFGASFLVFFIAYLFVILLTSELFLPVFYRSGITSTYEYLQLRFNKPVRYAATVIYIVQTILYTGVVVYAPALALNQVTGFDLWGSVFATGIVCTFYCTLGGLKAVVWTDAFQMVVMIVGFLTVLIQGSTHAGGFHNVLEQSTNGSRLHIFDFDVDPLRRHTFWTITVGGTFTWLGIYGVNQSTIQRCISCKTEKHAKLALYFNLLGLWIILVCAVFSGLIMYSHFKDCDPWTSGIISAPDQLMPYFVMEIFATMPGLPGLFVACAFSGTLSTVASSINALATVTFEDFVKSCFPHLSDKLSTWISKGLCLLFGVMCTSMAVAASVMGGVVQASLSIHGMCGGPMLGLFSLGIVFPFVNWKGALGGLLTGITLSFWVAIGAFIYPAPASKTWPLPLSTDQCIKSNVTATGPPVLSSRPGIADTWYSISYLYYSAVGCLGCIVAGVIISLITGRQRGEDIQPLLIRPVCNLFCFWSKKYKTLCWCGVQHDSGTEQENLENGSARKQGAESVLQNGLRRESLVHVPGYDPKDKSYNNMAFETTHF
Procedure: as §2

[7] = test system: FlpIn293TR-hSLC5A12-3×FLAG (SMCT2)-stable cell line; experiment: Toxicity test (XTT) in SMCT2-stable cell line; format: cell-based; conditions: 500 μM ibuprofen added with D-serine to SMCT2 cells
Procedure: (§3) A toxicity test for stable cells was carried out using an FlpIn293TR-stable cell line. The cells were seeded in a poly-D-lysine-coated 96-well plate at 6.5×10^3 cells/well (Mock) and 8×10^3 cells/well (hSLC5A8 and hSLC5A12 cells), while in antibiotic-free DMEM+dialyzed FBS medium. After 24 hours, they were treated with L- or D-serine at different concentrations and 1 mg/L of doxycycline hyclate was added to induce recombination gene expression. For the ASCT2 knockdown experiment, the seeded cells were transfected after 12 hours with ASCT2 siRNA at 2 pmol/well, using Lipofectamine 3000. The effect of ibuprofen was analyzed by simultaneous addition with D-serine treatment. The cells were cultured for 2 days to 80% confluence. The proliferated cell count was determined by XTT measurement in the same manner as described above.

[8] = test system: FlpIn293TR-hSLC5A8-3×FLAG (SMCT1)-stable cell line; experiment: Toxicity test (XTT) in SMCT1-stable cell line; format: cell-based; conditions: 500 μM ibuprofen added with D-serine to SMCT1 cells
Procedure: as §3

- [3H]D-serine transport [2]: inhibited
Compound: NCCCC(=O)O [GABA, γ-aminobutyric acid]
- [3H]D-serine transport [1]: inhibit

Compound: N[C@@H](CCC(=O)Nc1ccc([N+](=O)[O-])cc1)C(=O)O [GPNA, L-γ-glutamyl-p-nitroanilide]
- Uptake of D-[3H]serine [3]: inhibited

Compound: CSCC[C@H](N)C(=O)O [L-methionine]
- Uptake of D-[3H]serine [3]: inhibited
- [3H]D-serine transport [1]: inhibited

Compound: C[C@@H](O)[C@H](N)C(=O)O [L-threonine]
- uptake activity inhibited ([4]; 2 mM L-threonine, 10 μM D-[3H]serine, measuring time 30 seconds): About 70%
- Uptake of D-[3H]serine [3]: inhibited
- [3H]D-serine transport [1]: inhibited

- D-[3H]serine transport [5]: inhibited
- D-[3H]serine transport [6]: inhibited
Compound: CC(=O)Oc1ccccc1C(=O)O [acetylsalicylic acid]

- D-[3H]serine transport [5]: inhibited
- D-[3H]serine transport [6]: inhibited
Compound: CC(C)Cc1ccc(C(C)C(=O)O)cc1 (centres unmarked) [ibuprofen]
- D-[3H]serine transport activity ([4]; 1 and 3 mM ibuprofen, 50 μM D-[3H]serine, 1 minute): strongly inhibited
- effect of ibuprofen on D-serine effect on cell proliferation [7]: reduced the D-serine effect to the same level as the Mock cells
- effect of ibuprofen on D-serine effect on cell proliferation [8]: reduced the D-serine effect to the same level as the Mock cells

Compound: O=C(O)c1cccnc1 [nicotinic acid]
- Na+-dependent uptake inhibited ([4]; 1 mM nicotinic acid, 10 μM D-[3H]serine, measuring time 30 seconds): approximately 30%

Compound: S-benzyl-L-cystine [Benzyl-Cys]
- Uptake of D-[3H]serine [3]: inhibited
